Measured values from PubChem BioAssay AID1963860 (Molecular Pharmacology Branch, DTP, NCI, 2024).

Tested on: CN0375-F725-PDC KRAS spheroid viability
Experiment: Anticancer human tumor CN0375-F725-PDC patient-derived colon carcinoma cell line growth inhibition [KRAS2]
Conditions: spheroids with HUVEC and MSC; for IC50: curve of first compound; for viability, T/C: stronger effect = lower value
Procedure, shortened: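 Combination screen of spheroid viability in tumor-cell co-cultures with endothelial (HUVEC) and mesenchymal stem cell stroma. Each agent was tested in half-log dilutions, topping at clinical Cmax or at 10 microM without a known Cmax.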

[1] = second compound 0.1 µM, first compound 0.000316 µM
[2] = second compound 0.1 µM, first compound 0.001 µM
[3] = second compound 0.1 µM, first compound 0.00316 µM
[4] = second compound 0.1 µM, first compound 0.01 µM
[5] = second compound 0.1 µM, first compound 0.0316 µM
[6] = second compound 0.1 µM, first compound 0.1 µM
[7] = second compound 0.316 µM, first compound 0.000316 µM
[8] = second compound 0.316 µM, first compound 0.001 µM
[9] = second compound 0.316 µM, first compound 0.00316 µM
[10] = second compound 0.316 µM, first compound 0.01 µM
[11] = second compound 0.316 µM, first compound 0.0316 µM
[12] = second compound 0.316 µM, first compound 0.1 µM
[13] = second compound 1 µM, first compound 0.000316 µM
[14] = second compound 1 µM, first compound 0.001 µM
[15] = second compound 1 µM, first compound 0.00316 µM
[16] = second compound 1 µM, first compound 0.01 µM
[17] = second compound 1 µM, first compound 0.0316 µM
[18] = second compound 1 µM, first compound 0.1 µM
[19] = second compound 3.16 µM, first compound 0.000316 µM
[20] = second compound 3.16 µM, first compound 0.001 µM
[21] = second compound 3.16 µM, first compound 0.00316 µM
[22] = second compound 3.16 µM, first compound 0.01 µM
[23] = second compound 3.16 µM, first compound 0.0316 µM
[24] = second compound 3.16 µM, first compound 0.1 µM
[25] = second compound 10 µM, first compound 0.000316 µM
[26] = second compound 10 µM, first compound 0.001 µM
[27] = second compound 10 µM, first compound 0.00316 µM
[28] = second compound 10 µM, first compound 0.01 µM
[29] = second compound 10 µM, first compound 0.0316 µM
[30] = second compound 10 µM, first compound 0.1 µM
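Further: spheroids exposed to agents for 7 days.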

Row | Compound | IC50 (second compound 0.1 µM) [nM] | IC50 (second compound 0.316 µM) [nM] | IC50 (second compound 1 µM) [nM] | IC50 (second compound 3.16 µM) [nM] | IC50 (second compound 10 µM) [nM] | viability, T/C [1] [%] | viability, T/C [2] [%] | viability, T/C [3] [%] | viability, T/C [4] [%] | viability, T/C [5] [%] | viability, T/C [6] [%] | viability, T/C [7] [%] | viability, T/C [11] [%] | viability, T/C [12] [%] | viability, T/C [17] [%] | viability, T/C [18] [%] | viability, T/C [23] [%] | viability, T/C [24] [%] | viability, T/C [29] [%] | viability, T/C [30] [%] | other results
1 | Cn1ncnc1[C@H]1c2n[nH]c(=O)c3cc(F)cc(c23)N[C@@H]1c1ccc(F)cc1 + CC1OCC2(CCN(c3cnc(Sc4ccnc(N)c4Cl)c(N)n3)CC2)C1N | > 100 | > 100 | > 100 | > 100 | > 100 | 103 | 95.2 | 93.4 | 91.6 | 99.2 | 90.3 | 97.5 | 92.5 | 81 | 82.1 | 80 | 75.5 | 78.2 | 61.1 | 61.2 | viability, T/C [8]: 87.3%; viability, T/C [9]: 87.8%; viability, T/C [10]: 85.2%; viability, T/C [13]: 88.4%; viability, T/C [14]: 89.5%; viability, T/C [15]: 83.5%; viability, T/C [16]: 86.3%; viability, T/C [19]: 79.5%; viability, T/C [20]: 80.4%; viability, T/C [21]: 81%; viability, T/C [22]: 76.3%; viability, T/C [25]: 70.9%; viability, T/C [26]: 72.7%; viability, T/C [27]: 67.2%; viability, T/C [28]: 63.9%
2 | Cn1ncnc1[C@H]1c2n[nH]c(=O)c3cc(F)cc(c23)N[C@@H]1c1ccc(F)cc1 + CNCc1ccccc1-c1csc(C(C)Nc2nc(C)nc3cc(OC)c(OC)cc23)c1 | > 100 | > 100 | 0.634 | < 0.316 | < 0.316 | 107 | 106 | 97 | 95.7 | 95.4 | 93.6 | 100 | 91 | 88.2 | 39.4 | 40.6 | 0.25 | 0.42 | 0.13 | 0.23 | viability, T/C [8]: 101%; viability, T/C [9]: 94.5%; viability, T/C [10]: 86.9%; viability, T/C [13]: 54.1%; viability, T/C [14]: 46.2%; viability, T/C [15]: 47.8%; viability, T/C [16]: 41.5%; viability, T/C [19]: 0.23%; viability, T/C [20]: 0.33%; viability, T/C [21]: 0.31%; viability, T/C [22]: 0.28%; viability, T/C [25]: 0.14%; viability, T/C [26]: 0.33%; viability, T/C [27]: 0.13%; viability, T/C [28]: 0.15%
3 | O=C(c1cc(Cc2n[nH]c(=O)c3ccccc23)ccc1F)N1CCN(C(=O)C2CC2)CC1 + COc1cc2nc(C)nc(NC(C)c3cc(N)cc(C(F)(F)F)c3)c2cc1OC1CCOC1 | > 10000 | > 10000 | > 10000 | > 10000 | > 10000 |  |  |  |  | 105 | 106 |  | 102 | 103 | 111 | 107 | 92.8 | 95.4 | 82.2 | 81.4 | viability, T/C (second compound 0.1 µM, first compound 0.316 µM): 98.4%; viability, T/C (second compound 0.1 µM, first compound 1 µM): 107%; viability, T/C (second compound 0.1 µM, first compound 3.16 µM): 98.2%; viability, T/C (second compound 0.1 µM, first compound 10 µM): 106%; viability, T/C (second compound 0.316 µM, first compound 0.316 µM): 97.8%; viability, T/C (second compound 0.316 µM, first compound 1 µM): 98.8%; viability, T/C (second compound 0.316 µM, first compound 3.16 µM): 98.8%; viability, T/C (second compound 0.316 µM, first compound 10 µM): 93.2%; viability, T/C (second compound 1 µM, first compound 0.316 µM): 99%; viability, T/C (second compound 1 µM, first compound 1 µM): 97.8%; viability, T/C (second compound 1 µM, first compound 3.16 µM): 107%; viability, T/C (second compound 1 µM, first compound 10 µM): 93.5%; viability, T/C (second compound 3.16 µM, first compound 0.316 µM): 85.8%; viability, T/C (second compound 3.16 µM, first compound 1 µM): 84.6%; viability, T/C (second compound 3.16 µM, first compound 3.16 µM): 84.9%; viability, T/C (second compound 3.16 µM, first compound 10 µM): 71.5%; viability, T/C (second compound 10 µM, first compound 0.316 µM): 79.3%; viability, T/C (second compound 10 µM, first compound 1 µM): 69.9%; viability, T/C (second compound 10 µM, first compound 3.16 µM): 104%; viability, T/C (second compound 10 µM, first compound 10 µM): 98%
